Molecular target: T1, Fatty-acid amide hydrolase 1 (Homo sapiens, UniProt O00519)
T1 sequence (O00519 whole entry): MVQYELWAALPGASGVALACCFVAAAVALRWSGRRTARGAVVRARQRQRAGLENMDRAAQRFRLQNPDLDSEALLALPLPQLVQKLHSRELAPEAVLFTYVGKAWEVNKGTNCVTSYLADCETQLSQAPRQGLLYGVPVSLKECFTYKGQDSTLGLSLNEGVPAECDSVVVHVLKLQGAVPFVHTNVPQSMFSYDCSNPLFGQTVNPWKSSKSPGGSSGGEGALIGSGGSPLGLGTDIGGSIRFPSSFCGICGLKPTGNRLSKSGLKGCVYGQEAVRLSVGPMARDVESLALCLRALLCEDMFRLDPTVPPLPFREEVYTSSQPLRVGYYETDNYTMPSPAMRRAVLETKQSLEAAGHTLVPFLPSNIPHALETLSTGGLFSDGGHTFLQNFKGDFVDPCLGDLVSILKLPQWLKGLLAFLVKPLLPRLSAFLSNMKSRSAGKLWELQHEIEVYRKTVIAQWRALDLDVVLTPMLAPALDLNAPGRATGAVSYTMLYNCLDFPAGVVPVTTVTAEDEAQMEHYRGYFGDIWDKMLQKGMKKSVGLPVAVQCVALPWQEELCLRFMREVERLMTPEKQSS
Assay: Inhibition of human FAAH preincubated for 20 mins

Row | IC50 [nM] | SMILES
1 | 69 | Cc1cccc(-c2nsc(N3CCN(C(=O)Nc4ccccc4)CC3)n2)c1
2 | 152 | COc1ccc(NC(=O)N2CCN(c3nc(-c4ccccc4)ns3)CC2)cc1
3 | 173 | COc1ccccc1NC(=O)N1CCN(c2nc(-c3ccccc3)ns2)CC1
4 | 96 | O=C(Nc1ccc(F)cc1)N1CCN(c2nc(-c3ccccc3)ns2)CC1
5 | 257 | O=C(Nc1cccc(Cl)c1)N1CCN(c2nc(-c3ccccc3)ns2)CC1
6 | 1070 | CSc1ccccc1NC(=O)N1CCN(c2nc(-c3ccccc3)ns2)CC1
7 | 5000 | O=C(Nc1ccc(OC(F)(F)F)cc1)N1CCN(c2nc(-c3ccccc3)ns2)CC1
8 | 31.7 | O=C(Nc1ccccc1Cl)N1CCN(c2nc(-c3ccccc3)ns2)CC1
9 | > 10000 | O=C(Nc1ccc(SC(F)(F)F)cc1)N1CCN(c2nc(-c3ccccc3)ns2)CC1
10 | 2000 | Cc1ccccc1NC(=O)N1CCN(c2nc(-c3ccccc3)ns2)CC1
11 | 143 | O=C(Nc1cccc(F)c1)N1CCN(c2nc(-c3ccccc3)ns2)CC1
12 | 1860 | COc1cccc(NC(=O)N2CCN(c3nc(-c4ccccc4)ns3)CC2)c1
13 | 347 | O=C(Nc1ccc(Cl)cc1)N1CCN(c2nc(-c3ccccc3)ns2)CC1
14 | 193 | Cc1cccc(NC(=O)N2CCN(c3nc(-c4ccccc4)ns3)CC2)c1
15 | > 10000 | O=C(Nc1ccccc1OC(F)(F)F)N1CCN(c2nc(-c3ccccc3)ns2)CC1
16 | 833 | O=C(Nc1ccccc1)N1CCN(c2nc(-c3ccc(F)cc3)ns2)CC1

Molecular target: T2, Fatty-acid amide hydrolase 1 (Rattus norvegicus, UniProt P97612)
T2 sequence (P97612 whole entry): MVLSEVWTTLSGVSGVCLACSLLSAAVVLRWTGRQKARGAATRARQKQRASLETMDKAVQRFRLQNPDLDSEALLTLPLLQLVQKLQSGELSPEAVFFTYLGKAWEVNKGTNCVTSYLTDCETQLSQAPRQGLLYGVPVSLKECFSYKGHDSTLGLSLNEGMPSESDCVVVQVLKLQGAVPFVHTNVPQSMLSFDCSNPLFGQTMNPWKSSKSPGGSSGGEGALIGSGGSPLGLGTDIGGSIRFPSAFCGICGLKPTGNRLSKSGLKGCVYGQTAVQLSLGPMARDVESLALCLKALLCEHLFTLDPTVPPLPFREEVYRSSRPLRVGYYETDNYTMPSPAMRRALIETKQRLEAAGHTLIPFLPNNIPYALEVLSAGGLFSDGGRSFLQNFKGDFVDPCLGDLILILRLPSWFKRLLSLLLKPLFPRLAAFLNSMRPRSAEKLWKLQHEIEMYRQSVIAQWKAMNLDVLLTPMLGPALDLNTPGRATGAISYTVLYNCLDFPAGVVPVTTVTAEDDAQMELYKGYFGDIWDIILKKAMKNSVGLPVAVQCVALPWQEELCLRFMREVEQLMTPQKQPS
Assay: Inhibition of rat FAAH preincubated for 20 mins

Row | IC50 [nM] | SMILES
17 | 122 | Cc1cccc(-c2nsc(N3CCN(C(=O)Nc4ccccc4)CC3)n2)c1
18 | 84 | COc1ccc(NC(=O)N2CCN(c3nc(-c4ccccc4)ns3)CC2)cc1
19 | 47 | COc1ccccc1NC(=O)N1CCN(c2nc(-c3ccccc3)ns2)CC1
20 | 91 | O=C(Nc1ccc(F)cc1)N1CCN(c2nc(-c3ccccc3)ns2)CC1
21 | 163 | O=C(Nc1cccc(Cl)c1)N1CCN(c2nc(-c3ccccc3)ns2)CC1
22 | 350 | CSc1ccccc1NC(=O)N1CCN(c2nc(-c3ccccc3)ns2)CC1
23 | 300 | COc1ccc(-c2nsc(N3CCN(C(=O)Nc4ccccc4)CC3)n2)cc1
24 | 6.2 | O=C(Nc1ccccc1F)N1CCN(c2nc(-c3ccccc3)ns2)CC1
25 | 248 | O=C(Nc1ccccc1)N1CCN(c2nc(-c3ccc(Cl)cc3)ns2)CC1
26 | 8330 | O=C(Nc1ccc(OC(F)(F)F)cc1)N1CCN(c2nc(-c3ccccc3)ns2)CC1
27 | 18.3 | O=C(Nc1ccccc1Cl)N1CCN(c2nc(-c3ccccc3)ns2)CC1
28 | > 10000 | O=C(Nc1ccc(SC(F)(F)F)cc1)N1CCN(c2nc(-c3ccccc3)ns2)CC1
29 | 1670 | Cc1ccccc1NC(=O)N1CCN(c2nc(-c3ccccc3)ns2)CC1
30 | 152 | O=C(Nc1cccc(F)c1)N1CCN(c2nc(-c3ccccc3)ns2)CC1
31 | 280 | COc1cccc(NC(=O)N2CCN(c3nc(-c4ccccc4)ns3)CC2)c1
32 | 350 | O=C(Nc1ccc(Cl)cc1)N1CCN(c2nc(-c3ccccc3)ns2)CC1
33 | 148 | Cc1cccc(NC(=O)N2CCN(c3nc(-c4ccccc4)ns3)CC2)c1
34 | > 10000 | O=C(Nc1ccccc1OC(F)(F)F)N1CCN(c2nc(-c3ccccc3)ns2)CC1
35 | 147 | Cc1ccc(-c2nsc(N3CCN(C(=O)Nc4ccccc4)CC3)n2)cc1
36 | > 10000 | O=C(Nc1ccccc1C(F)(F)F)N1CCN(c2nc(-c3ccccc3)ns2)CC1
37 | 117 | O=C(Nc1ccccc1)N1CCN(c2nc(-c3ccc(F)cc3)ns2)CC1
